Results published in ChEMBL document CHEMBL1201862, “PubChem BioAssay data set” (2004).
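Values below derive from 48-hour exposures of cells grown in 96-well plates, with endpoints linearly interpolated between the two concentrations bracketing the appropriate inhibition level. Abbreviation: GI50, concentration required for 50% inhibition of growth.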 Activity calls are given as the source filed them. Rule as the data show it: active = GI50 up to about 1.1 µM and inactive = higher.

Legend:
Assay in all cases: NCI-60 cell line screen, 48 h
HL-60 = tested on: HL-60
CCRF-CEM = tested on: CCRF-CEM
KM12 = tested on: KM12
OVCAR-4 = tested on: OVCAR-4
TK-10 = tested on: TK-10
UACC-62 = tested on: UACC-62
MDA-MB-231 = tested on: MDA-MB-231
RPMI-8226 = tested on: RPMI-8226
786-0 = tested on: 786-0
HCT-116 = tested on: HCT-116
T47D = tested on: T47D
CAKI-1 = tested on: CAKI-1
NCI-H522 = tested on: NCI-H522
SNB-75 = tested on: SNB-75
SK-OV-3 = tested on: SK-OV-3
IGROV-1 = tested on: IGROV-1
HCC 2998 = tested on: HCC 2998
SF-295 = tested on: SF-295
MDA-MB-435 = tested on: MDA-MB-435

S=C(N/N=C(\c1ccccc1)c1ccccn1)NC1CCCCC1
GI50 (HL-60): 0.16 µM (active)
GI50 (CCRF-CEM): 0.322 µM (active)
GI50 (KM12): 13.1 µM (inactive)
GI50 (OVCAR-4): 7.91 µM (inactive)
GI50 (TK-10): 0.849 µM (active)
GI50 (UACC-62): > 29.8 µM (inactive)
GI50 (MDA-MB-231): 1.57 µM (inactive)
GI50 (RPMI-8226): 2.16 µM (inactive)
GI50 (786-0): 18 µM (inactive)
GI50 (HCT-116): 0.566 µM (active)
GI50 (T47D): 3.48 µM (inactive)
GI50 (CAKI-1): 0.834 µM (active)
GI50 (NCI-H522): 1.94 µM (inactive)
GI50 (SNB-75): 65.3 µM (inactive)
GI50 (SK-OV-3): 11.5 µM (inactive)
GI50 (IGROV-1): 0.31 µM (active)
GI50 (HCC 2998): > 61.4 µM (inactive)
GI50 (SF-295): 26.5 µM (inactive)
GI50 (MDA-MB-435): 31.6 µM (inactive)

COC(=O)Cc1ccc(Oc2nc3ccccc3nc2-c2cccs2)cc1
GI50 (HL-60): > 100 µM (inactive)
GI50 (CCRF-CEM): > 100 µM (inactive)
GI50 (KM12): > 100 µM (inactive)
GI50 (OVCAR-4): > 100 µM (inactive)
GI50 (TK-10): 95.9 µM (inactive)
GI50 (UACC-62): > 100 µM (inactive)
GI50 (MDA-MB-231): 27.2 µM (inactive)
GI50 (RPMI-8226): > 100 µM (inactive)
GI50 (786-0): 40.7 µM (inactive)
GI50 (HCT-116): > 100 µM (inactive)
GI50 (T47D): > 100 µM (inactive)
GI50 (CAKI-1): > 100 µM (inactive)
GI50 (NCI-H522): > 100 µM (inactive)
GI50 (SNB-75): 6.81 µM (inactive)
GI50 (SK-OV-3): 24.8 µM (inactive)
GI50 (IGROV-1): > 100 µM (inactive)
GI50 (HCC 2998): > 100 µM (inactive)
GI50 (SF-295): 30.8 µM (inactive)
GI50 (MDA-MB-435): > 100 µM (inactive)

COc1cc([C@@H]2c3cc4c(cc3[C@@H](Nc3ccc(/N=C\c5ccc(C(=O)O[C@@H](C(=O)O[C@H]6C[C@@]7(O)[C@@H](OC(=O)c8ccccc8)[C@@H]8[C@]9(OC(C)=O)CO[C@@H]9C[C@H](O)[C@@]8(C)C(=O)[C@H](OC(C)=O)C(=C6C)C7(C)C)[C@@H](NC(=O)c6ccccc6)c6ccccc6)cc5)cc3)[C@H]3COC(=O)[C@H]23)OCO4)cc(OC)c1O
GI50 (HL-60): 0.697 µM (active)
GI50 (CCRF-CEM): 0.544 µM (active)
GI50 (KM12): 15.8 µM (inactive)
GI50 (OVCAR-4): > 50 µM (inactive)
GI50 (TK-10): 10.4 µM (inactive)
GI50 (UACC-62): 4.26 µM (inactive)
GI50 (MDA-MB-231): 20.7 µM (inactive)
GI50 (RPMI-8226): 2.59 µM (inactive)
GI50 (786-0): 2.63 µM (inactive)
GI50 (HCT-116): 3.28 µM (inactive)
GI50 (T47D): 11.4 µM (inactive)
GI50 (CAKI-1): 0.916 µM (active)
GI50 (NCI-H522): > 21.3 µM (inactive)
GI50 (SNB-75): 2.29 µM (inactive)
GI50 (SK-OV-3): 2.78 µM (inactive)
GI50 (IGROV-1): 12.4 µM (inactive)
GI50 (HCC 2998): 14.9 µM (inactive)
GI50 (SF-295): 1.99 µM (inactive)
GI50 (MDA-MB-435): 0.208 µM (active)

OC(CC(O)(C(F)(F)Cl)C(F)(F)Cl)c1ccccc1 (stereo not given)
GI50 (HL-60): > 10 µM (inactive)
GI50 (CCRF-CEM): > 10 µM (inactive)
GI50 (KM12): > 10 µM (inactive)
GI50 (OVCAR-4): > 10 µM (inactive)
GI50 (TK-10): > 10 µM (inactive)
GI50 (UACC-62): > 10 µM (inactive)
GI50 (MDA-MB-231): > 10 µM (inactive)
GI50 (RPMI-8226): > 10 µM (inactive)
GI50 (786-0): < 0.001 µM (active)
GI50 (HCT-116): > 10 µM (inactive)
GI50 (T47D): > 10 µM (inactive)
GI50 (CAKI-1): > 10 µM (inactive)
GI50 (NCI-H522): > 10 µM (inactive)
GI50 (SNB-75): > 10 µM (inactive)
GI50 (SK-OV-3): > 10 µM (inactive)
GI50 (IGROV-1): 0.0258 µM (active)
GI50 (HCC 2998): > 10 µM (inactive)
GI50 (SF-295): > 10 µM (inactive)
GI50 (MDA-MB-435): < 0.001 µM (active)

Cc1cc(C)nc(NS(=O)(=O)c2ccc(NNC(=O)c3cccc4c(NNc5ccc(S(=O)(=O)Nc6nc(C)cc(C)n6)cc5)c5ccccc5nc34)cc2)n1
GI50 (HL-60): 20.7 µM (inactive)
GI50 (CCRF-CEM): 18.5 µM (inactive)
GI50 (KM12): 17.8 µM (inactive)
GI50 (OVCAR-4): 23.3 µM (inactive)
GI50 (TK-10): 35.5 µM (inactive)
GI50 (UACC-62): 18.5 µM (inactive)
GI50 (MDA-MB-231): 14.6 µM (inactive)
GI50 (RPMI-8226): 25.6 µM (inactive)
GI50 (786-0): 21.8 µM (inactive)
GI50 (HCT-116): 22.9 µM (inactive)
GI50 (T47D): 19.5 µM (inactive)
GI50 (CAKI-1): 18.8 µM (inactive)
GI50 (NCI-H522): 18.1 µM (inactive)
GI50 (SNB-75): 17.7 µM (inactive)
GI50 (SK-OV-3): 25.3 µM (inactive)
GI50 (IGROV-1): 20 µM (inactive)
GI50 (HCC 2998): 21.4 µM (inactive)
GI50 (SF-295): 31.8 µM (inactive)
GI50 (MDA-MB-435): 20.9 µM (inactive)
